Measured values taken from the NIST ThermoML archive (doi:10.1016/j.jct.2018.04.019).
Numbers after ± are expanded uncertainties.

Conditions: Liquid, Vibrating tube method

Cc1ccccc1 [toluene]
Conditions	mass density [kg/m3]
283.16 K, 1020 kPa	876.55 ± 0.61
283.16 K, 5010 kPa	879.36 ± 0.61
283.16 K, 10030 kPa	882.78 ± 0.61
283.16 K, 15050 kPa	886.11 ± 0.62
283.16 K, 20080 kPa	889.23 ± 0.62
283.16 K, 25060 kPa	892.35 ± 0.62
283.16 K, 30040 kPa	895.27 ± 0.63
283.16 K, 35080 kPa	898.24 ± 0.63
283.16 K, 40060 kPa	901.05 ± 0.64
283.16 K, 45050 kPa	903.77 ± 0.64
283.16 K, 50010 kPa	906.43 ± 0.64
283.16 K, 55060 kPa	909.09 ± 0.65
283.16 K, 60030 kPa	911.65 ± 0.65
283.16 K, 65050 kPa	914.15 ± 0.65
298.15 K, 1040 kPa	862.88 ± 0.61
298.15 K, 5040 kPa	865.93 ± 0.61
298.15 K, 10030 kPa	869.6 ± 0.61
298.15 K, 15050 kPa	873.21 ± 0.62
298.15 K, 20040 kPa	876.63 ± 0.62
298.15 K, 25050 kPa	879.93 ± 0.63
298.15 K, 30060 kPa	883.14 ± 0.63
298.15 K, 35020 kPa	886.25 ± 0.64
298.15 K, 40040 kPa	889.26 ± 0.64
298.15 K, 45070 kPa	892.2 ± 0.65
298.15 K, 50040 kPa	895.06 ± 0.65
298.15 K, 55040 kPa	897.86 ± 0.66
298.15 K, 60030 kPa	900.56 ± 0.66
298.15 K, 65020 kPa	903.2 ± 0.67
323.15 K, 1050 kPa	839.46 ± 0.61
323.15 K, 5050 kPa	843.04 ± 0.61
323.15 K, 10030 kPa	847.29 ± 0.62
323.15 K, 15010 kPa	851.38 ± 0.62
323.15 K, 20010 kPa	855.27 ± 0.63
323.15 K, 25060 kPa	859.05 ± 0.64
323.15 K, 30080 kPa	862.69 ± 0.64
323.15 K, 35020 kPa	866.13 ± 0.65
323.15 K, 40010 kPa	869.52 ± 0.66
323.15 K, 45060 kPa	872.84 ± 0.66
323.15 K, 50010 kPa	875.93 ± 0.67
323.15 K, 55010 kPa	879.01 ± 0.68
323.15 K, 60050 kPa	882.04 ± 0.68
323.15 K, 65030 kPa	884.91 ± 0.69
348.15 K, 1060 kPa	815.55 ± 0.61
348.15 K, 5070 kPa	819.75 ± 0.62
348.15 K, 10010 kPa	824.67 ± 0.62
348.15 K, 15030 kPa	829.43 ± 0.63
348.15 K, 20030 kPa	833.88 ± 0.64
348.15 K, 25020 kPa	838.2 ± 0.64
348.15 K, 30080 kPa	842.3 ± 0.65
348.15 K, 35050 kPa	846.21 ± 0.66
348.15 K, 40050 kPa	849.97 ± 0.67
348.15 K, 45070 kPa	853.63 ± 0.68
348.15 K, 50020 kPa	857.09 ± 0.69
348.15 K, 55060 kPa	860.49 ± 0.7
348.15 K, 60040 kPa	863.8 ± 0.7
348.15 K, 65070 kPa	867 ± 0.71
373.15 K, 1050 kPa	790.86 ± 0.61
373.15 K, 5020 kPa	795.87 ± 0.62
373.15 K, 10040 kPa	801.74 ± 0.63
373.15 K, 15040 kPa	807.26 ± 0.63
373.15 K, 20030 kPa	812.38 ± 0.64
373.15 K, 25080 kPa	817.35 ± 0.65
373.15 K, 30070 kPa	821.93 ± 0.66
373.15 K, 35040 kPa	826.36 ± 0.68
373.15 K, 40040 kPa	830.59 ± 0.69
373.15 K, 45030 kPa	834.57 ± 0.7
373.15 K, 50040 kPa	838.5 ± 0.71
373.15 K, 55040 kPa	842.23 ± 0.72
373.15 K, 60010 kPa	845.81 ± 0.73
398.15 K, 1070 kPa	765.25 ± 0.62
398.15 K, 5030 kPa	771.26 ± 0.62
398.15 K, 10040 kPa	778.22 ± 0.63
398.15 K, 15080 kPa	784.74 ± 0.64
398.15 K, 20010 kPa	790.62 ± 0.65
398.15 K, 25050 kPa	796.25 ± 0.67
398.15 K, 30040 kPa	801.49 ± 0.68
398.15 K, 35040 kPa	806.48 ± 0.69
398.15 K, 40020 kPa	811.17 ± 0.7
398.15 K, 45040 kPa	815.71 ± 0.72
398.15 K, 50020 kPa	819.96 ± 0.73
398.15 K, 55040 kPa	824.15 ± 0.74
398.15 K, 60020 kPa	828.11 ± 0.75
398.15 K, 65080 kPa	831.99 ± 0.77
423.15 K, 1050 kPa	738.06 ± 0.62
423.15 K, 5030 kPa	745.45 ± 0.63
423.15 K, 10060 kPa	753.93 ± 0.64
423.15 K, 15030 kPa	761.54 ± 0.65
423.15 K, 20000 kPa	768.41 ± 0.66
423.15 K, 25020 kPa	774.89 ± 0.68
423.15 K, 30020 kPa	780.87 ± 0.69
423.15 K, 35060 kPa	786.56 ± 0.71
423.15 K, 40020 kPa	791.82 ± 0.72
423.15 K, 45040 kPa	796.87 ± 0.74
423.15 K, 50040 kPa	801.63 ± 0.75
423.15 K, 55060 kPa	806.24 ± 0.77
423.15 K, 60040 kPa	810.55 ± 0.78
423.15 K, 65050 kPa	814.77 ± 0.8
448.15 K, 1040 kPa	708.96 ± 0.63
448.15 K, 5070 kPa	718.48 ± 0.63
448.15 K, 10040 kPa	728.71 ± 0.65
448.15 K, 15070 kPa	737.86 ± 0.66
448.15 K, 20050 kPa	745.94 ± 0.68
448.15 K, 25050 kPa	753.39 ± 0.69
448.15 K, 30040 kPa	760.21 ± 0.71
448.15 K, 35040 kPa	766.59 ± 0.73
448.15 K, 40020 kPa	772.48 ± 0.75
448.15 K, 45030 kPa	778.13 ± 0.76
448.15 K, 50030 kPa	783.39 ± 0.78
448.15 K, 55060 kPa	788.44 ± 0.8
448.15 K, 60010 kPa	793.17 ± 0.81
448.15 K, 65060 kPa	797.83 ± 0.83
473.15 K, 1030 kPa	676.8 ± 0.63
473.15 K, 5050 kPa	689.34 ± 0.64
473.15 K, 10050 kPa	702.19 ± 0.66
473.15 K, 15060 kPa	713.2 ± 0.68
473.15 K, 20020 kPa	722.73 ± 0.69
473.15 K, 25040 kPa	731.39 ± 0.71
473.15 K, 30010 kPa	739.18 ± 0.73
473.15 K, 35040 kPa	746.42 ± 0.75
473.15 K, 40050 kPa	753.09 ± 0.77
473.15 K, 45060 kPa	759.38 ± 0.79
473.15 K, 50050 kPa	765.18 ± 0.81
473.15 K, 55020 kPa	770.69 ± 0.83
473.15 K, 60030 kPa	775.95 ± 0.85
473.15 K, 65020 kPa	780.92 ± 0.87
